# Assay results taken from patent US20010001095A1, “Method for treating plants” (University of Maryland Eatern Shore, priority 1996, published 2001).
# Marks after values point to notes of the source that are not given here.
# Legend:
# soybean = assay: Greenhouse experiment: methanol sprayed on soybean plants from cured (PPFMs absent) or untreated (PPFMs present) seeds, plant dry weight; assay type: in vivo; settings: for Mean dry weight +/− SD: methanol 0.5 ml per plant, harvested 2 weeks after spraying; for % gain over controls (dry weight): vs zero-time control
# Protocol: Application of PPFMs to plants was performed in accordance with the methods detailed in U.S. Pat. No. 5,512,069. Application of methanol to plants was performed in accordance with U.S. Patent No. 5,532,204.
# Soybeans were treated with dry heat before planting to lower the population of PPFMs on them (see U.S. Pat. No. 5,512,069). Untreated seeds served as controls.
# To test whether the presence of PPFM bacteria is required for foliar applications of methanol to be effective, greenhouse experiments were conducted. Seeds of soybean were cured of their PPFM bacteria with dry heat as previously described (Holland et al, 1992, Plant Physiol 98:942-948)). Cured and untreated seeds wee then plated in the greenhouse in a soil-less potting medium (Pro-Mix BX), Premier Horticulture Inc.). During germination, and while the seedlings established themselves, all plants were watered freely. After 4 weeks, both cured and untreated plants were divided into two groups (each group consisting of approximately 10 pots of 5 plants). One group of cured seedlings and one group of untreated seedlings were maintained as before under freely-watered conditions. […] After 2 weeks, half of the plants in each test group were harvested and dried to constant weight (a zero-time control). The remaining plants were sprayed with methanol (0.5 ml per plant) from an atomizer and were allowed to continue growing under their respective watering regimes for an additional 2 weeks. At the end of this period, all remaining plants were harvested and dried to constant weight.
# C3 crop plants = settings: foliar sprays of aqueous (10-50%) methanol, arid environments; cited from earlier work
# [1] = system: soybean (Glycine max (L.) Merr. cv. 'Corsica'); assay: Field experiments: foliar applications on soybean, seed yield by weight; assay type: in vivo
# Protocol: To test the effects of foliar applications of methanol on soybean (Glycine max (L.) Merr. cv. ‘Corsica’ (maturity group IV)), field experiments were conducted over three years. In the first year, methanol at 0, 62.5 and 125 liters×ha^−1 was combined with urea nitrogen at 0, 12.5 and 25 kg×ha^−1 and sprayed with distilled water in a total volume of 500 liters×ha^−1 on test plants at the R5 stage of development. Latron B-1956 (Rohm and Haas) surfactant at 0.1% was included in all treatments. Treatments were applied from a knapsack sprayer in a randomized complete block design with four replications. Test blocks measured 5m×1.52m (7.6m^2). Plants were harvested by hand, threshed, and seed yield determined by weight. All seed weights are reported at 13% moisture content. […] To test whether PPFMS applied to leaves can substitute for methanol, spray applications of the bacterial alone and in combination with methanol were included in field experiments in the third year. […] The bacteria used in these treatments were isolated from soybean seed coat on plates of AMS medium. From a single bacterial colony, a liquid culture in the same medium was established and used to inoculate 12 liter batches of the bacteria in a Microferm fermentor (New Brunswick Scientific). Cells were harvested by centrifugation and resuspended in distilled water for application to plants in the field.
# [2] = non-stressed (freely watered), PPFMs present
# [3] = stress (wilting) conditions, PPFMs present
# [4] = second year, M1 = 62.5 liters × ha^−1 methanol, N1 = 12.5 kg × ha^−1 urea
smiles,measurement,setting,value
CO [methanol],effect of methanol application on plant dry weight (a measure of yield),"soybean; non-stressed (freely watered) conditions, regardless of whether PPFMs are present",does not affect plant dry weight
same,Mean dry weight +/− SD,"soybean; non-stressed (freely watered), PPFMs absent (cured seeds)",5.03 ± 1.19 g
same,% gain over controls (dry weight),"soybean; non-stressed (freely watered), PPFMs absent (cured)",80%
same,Mean dry weight +/− SD,soybean; [2],6.85 ± 1.69 g
same,% gain over controls (dry weight),soybean; [2],78%
same,growth (increase in plant dry weight),"soybean; stress (wilting) conditions, only when PPFMs are present",improves growth
same,Mean dry weight +/− SD,"soybean; stress (wilting) conditions, PPFMs absent (cured seeds)",2.69 ± 0.65 g
same,% gain over controls (dry weight),"soybean; stress (wilting) conditions, PPFMs absent (cured)",6%
same,Mean dry weight +/− SD,soybean; [3],4.64 ± 0.72 g
same,% gain over controls (dry weight),soybean; [3],65%
same,growth and yield,C3 crop plants,increased growth and yield
same,Yield (seed yield),"[1]; first year, M2N0: 125 liters × ha^−1 methanol, 0 urea, sprayed at R5",2.28
same,Yield (seed yield),[1]; [4],2.4*
NC(N)=O [urea],Yield (seed yield),"[1]; first year, M0N1: 0 methanol, 12.5 kg × ha^−1 urea, sprayed at R5",2.18
same,Yield (seed yield),"[1]; first year, M0N2: 0 methanol, 25 kg × ha^−1 urea, sprayed at R5",2.15
same,Yield (seed yield),[1]; [4],2.4
